Data taken from EP4772186A1, “USE AND COMPOSITION OF POSTBIOTIC OF LACTOBACILLUS PARACASEI ET-22” (Inner Mongolia Yili Industrial Group Co., Ltd., priority 2023, dated 2025).

What was measured:
[1] = test system: volatile organic compounds (VOCs); experiment: SPME-GC-MS of volatile organic compounds (VOCs) in saliva fermentation; assay type: cell-based, halitosis subjects (saliva)
Procedure: Fresh saliva was collected from 10 halitosis subjects (Halimeter index >120). Subjects were required not to consume any food or drink for 2 hours before donating saliva. Saliva was directly spat into a saliva collection tube, 5 ml per person, and mixed. The mixture was centrifuged at 4500 rpm for 10 minutes, and the supernatant was collected, aliquoted, and stored at -80°C for subsequent experimental studies.
Lysate group: In a headspace vial, 100 µl of saliva was added first, followed by separate addition of ET-22 viable bacteria (1.0×10^9 CFU/ml), ET-22 heat-inactivated bacterial cells (obtained by inactivating viable bacteria at 1.0×10^9 CFU/ml), and lysate (obtained by inactivating and then filtering viable bacteria at 1.0×10^9 CFU/ml), each at 100µl. Then, 800 µl of SHI medium was added. After filling with nitrogen, anaerobic cultivation was performed for 10 hours for loading on machine, and then SPME-GC-MS was used to test the change in content of volatile organic compound.
NAD group: In a headspace vial, 100 µl of saliva was added first, followed by the separate addition of ET-22 viable bacteria (1.0×10^9 CFU/ml), ET-22 heat-inactivated bacterial cells (obtained by heat-inactivating viable bacteria at 1.0×10^9 CFU/ml), and NAD (100 µg/ml), each at 100µl. Then, 800 µl of SHI medium was added. After filling with nitrogen, anaerobic cultivation was performed for 10 hours for loading on machine, then SPME-GC-MS was used to test the changes in content of volatile organic compound.
2-hydroxy-3-phenylpropionic acid group: In a headspace vial, 100 µl of saliva was added first, followed by the separate addition of ET-22 viable bacteria (1.0×10^9 CFU/ml), ET-22 heat-inactivated bacterial cells (obtained by heat-inactivating viable bacteria at 1.0×10^9 CFU/ml), and 2-hydroxy-3-phenylpropionic acid (100 µg/ml), each at 100µl. […]
Helium was used as a carrier gas, with a rate remaining at 1.1 mL min-1. […] The flavor characteristic of each compound was determined based on data from the Good Scents Company Information System (http://www.thegoodscentscompany.com).

[2] = test system: halitosis virulence factors, including cdl, fadA, mgl, and gtfb; experiment: RT-PCR of virulence factors in multi-species biofilm; assay type: cell-based; conditions: compared with CK group, 2^-△△CT method
Procedure: (§1) 100 µl of saliva was added to a 24-well plate, then 100 µl of the corresponding concentration solution was added respectively to the experimental groups, and finally 800 µl of SHI medium was added. The plate was placed in an anaerobic box and cultured anaerobically at 37°C for 10 hours. Then, the supernatant was discarded, and the multi-species biofilm adhered to the well plate was obtained. After discarding the supernatant from the incubated biofilm, the biofilm adhered to the bottom of the well plate was re-suspended with sterile water by pipetting, transferred to a 1.5 ml centrifuge tube, and stored until gene sequencing was performed.
(§2) This example evaluated the effects of lysate, NAD, 2-hydroxy-3-phenylpropionic acid, polypeptide GP(Hyp)GAG, and peptidoglycan on halitosis virulence factors, including cdl, fadA, mgl, and gtfb. The gene cdl can regulate the expression of L-cysteine […], which can catalyze the degradation of protein substrate to produce VSC, thereby causing halitosis. Fusobacterium nucleatum secretes an amyloid-like adhesin (fadA) via the fap2-like autotransporter protein to enhance its virulence. […]
(§3) After the sample RNA was reverse-transcribing into cDNA, RT-PCR reaction was performed to detect biofilm-related virulence factors. Experimental results were calculated using the 2^-△△CT method. […]

[3] = test system: fadA; experiment: as above; assay type: cell-based, Fusobacterium nucleatum; conditions: relative to ET-22 viable bacteria (ET22-L) and ET-22 heat-inactivated bacteria (ET22-HK)
Procedure: as §1, §2, §3

`O=C(O)C(O)Cc1ccccc1` (centres unmarked) [2-hydroxy-3-phenylpropionic acid] was tested, and the “number of flavor-active acid compounds” value ([1]; among 71 aroma-active VOCs, 100 µg/ml) was “significantly decreases”, the “number of flavor-active ester compounds” value ([1]; among 71 aroma-active VOCs, pure components 100 µg/ml, others from 1.0×10^9 CFU/ml) was “significantly decreases” and the “number of alkane compounds (VOCs)” value ([1]; pure components 100 µg/ml, peptidoglycan from 1.0×10^9 CFU/ml, 10 hours) was “significantly decreases”. The “expression of virulence factors (cdl, fadA, mgl, gtfb)” value [2] was “significantly regulate” and the “inhibitory effect on the expression of virulence factor fadA” value [3] was “better”.
